The record followed here is patent publication US20180022810A1, “USE OF CXCR3 INHIBITORS FOR PROTECTING AGAINST FETAL WASTAGE” (Children's Hospital Medical Center, priority 2015, published 2018).

The experiment deals with C57BL/6 female mice bearing allogeneic pregnancy sired by Balb/c males. The experiment is described as follows: Fetal wastage and in utero Lm invasion after virulent Lm (strain 10403s) prenatal infection, allogeneic pregnancy. It is filed as in vivo. The note with it: virulent Lm 10^4 CFU, ampicillin in drinking water.

As to `CC1(C)S[C@@H]2[C@H](NC(=O)[C@H](N)c3ccccc3)C(=O)N2[C@H]1C(=O)O` [ampicillin], the “benefits (protection against fetal wastage)” value (treatment delayed until 24 hours post-infection) is “uniformly dissipated”. Further, the “protection against fetal wastage” value (treatment initiated 12 hours after infection) was “near complete protection”.
